Assay results published in patent US8835420B2, “Azaindole derivatives” (Takeda Pharmaceutical Company Limited, priority 2012, dated 2014).

Molecular target: T1, PI3Kδ (recombinant GST-tagged PIK3CD co-expressed with PIK3R1, p85α) (Homo sapiens, UniProt O00329)
T1 construct: The protein is full length and co-expressed with untagged PIK3R1; GST; purchased Invitrogen PV5274
Assay: PI3Kδ inhibition, modified PIK3CD Adapta TR-FRET kinase assay
Format: biochemical
Settings: 2 μM ATP, 50 μM PIP2, 1 hour at room temperature, pIC50 = -log(IC50 in M)
Procedure: The activity of compounds as PI3Kδ inhibitors may be determined by a variety of methods, including in vitro and in vivo methods. The following in vitro assay measures a test compound's ability to inhibit PI3Kδ-mediated phosphorylation of PIP2 and ATP.
Recombinant GST-tagged PIK3CD is purchased from Invitrogen (Part Number: PV5274). The protein is full length and co-expressed with untagged PIK3R1, phosphoinositide-3-kinase regulatory subunit 1 (p85α). The protein is stored at −20° C. in 50 mM TRIS (pH 7.5), 150 mM NaCl, 0.5 mM EDTA, 0.02% Triton® X-100, 2 mM DTT, and 50% glycerol.
A modified PIK3CD Adapta® assay (Invitrogen, Carlsbad, Calif.) is used to measure PI3Kδ inhibition of the example compounds. The assay has two phases. In the first phase, kinase reaction components, which include the enzyme (PIK3CD), substrates (PIP2, ATP), test compound (inhibitor), and assay buffer are added to each well, and the reaction is allowed to incubate for a pre-determined period of time. After reaction, a detection solution composed of a Eu (europium)-labeled anti-ADP antibody, Alexa Fluor® 647-labeled ADP tracer, and EDTA (to stop the kinase reaction) is added to each assay well. In this second phase, ADP formed by the kinase reaction displaces the Alexa Fluor® 647-labeled ADP tracer from the antibody, resulting in a decrease in time-resolved fluorescence resonance energy transfer (TR-FRET) signal. In the presence of the inhibitor, the amount of ADP formed by the kinase reaction is reduced, and the resulting intact antibody-tracer interaction maintains a high TR-FRET signal.
The assay uses black Greiner® 384-well plates (784076). The reaction buffer contains 50 mM Hepes (pH 7.5), 3 mM MgCl2, 1 mM EGTA, 100 mM NaCl, 0.03% CHAPS; 2 mM DTT is added fresh prior to each experiment. Enzyme (4 μL, estimated 1.5 nM in buffer) is first added to the wells of the plate. Next, test compounds (2 μL) from a source plate (5% dilution plate) are introduced into the wells. The final DMSO concentration in each assay well is 1%. The dilution plate contains 5% DMSO in the bottom half of columns 23 and 24, which serve as negative (non-inhibited) controls; the top half contains a known inhibitor concentration (positive control) that gives >98% inhibition of the kinase reaction. Other wells contain test compounds serially diluted across the plate 11 times for a total of 12 data points. The kinase reactions are carried out at room temperature and are initiated by the addition of 4 μL of solution containing 2 μM ATP and 50 μM PIP2. Each reaction is stopped after 1 hour±10 minutes via addition of 10 μL stop solution, which contains a final assay concentration of 3 nM Alexa Fluor® 647-labeled ADP tracer, 2 nM Eu-anti-ADP Antibody, and 10 mM EDTA. After allowing the solutions to equilibrate for 30±10 minutes, a PHERAstar plate reader is used to excite the Eu donor (at 337 nm) and to detect emission from the Alexa Fluor® 647 at 665 nm. This emission signal is referenced or “ratioed” to the emission from Eu at 620 nm. The emission ratio (665 nm/620 nm) from each well is collected and converted to percent conversion using a standard curve for the assay conditions: % conversion=B*(C+A−emission ratio)/(emission ratio−C), where “A” and “C” are the maximum and minimum values of the emission ratio obtained from the standard curve of emission ratio vs. % conversion (ATP-ADP); “B” is the emission ratio corresponding to the % conversion at the EC50 value for the ADP Tracer—Eu anti-ADP antibody complex. The percent inhibition for a given inhibitor concentration is computed from % conversion for the reaction and for the positive and negative controls. Corresponding IC50 values are calculated by non-linear curve fitting of the compound concentrations and values of percent inhibition to the standard IC50 equation and are reported as pIC50, i.e., −log(IC50), where IC50 is molar concentration at 50% inhibition.

T1 sequence (O00329 whole entry): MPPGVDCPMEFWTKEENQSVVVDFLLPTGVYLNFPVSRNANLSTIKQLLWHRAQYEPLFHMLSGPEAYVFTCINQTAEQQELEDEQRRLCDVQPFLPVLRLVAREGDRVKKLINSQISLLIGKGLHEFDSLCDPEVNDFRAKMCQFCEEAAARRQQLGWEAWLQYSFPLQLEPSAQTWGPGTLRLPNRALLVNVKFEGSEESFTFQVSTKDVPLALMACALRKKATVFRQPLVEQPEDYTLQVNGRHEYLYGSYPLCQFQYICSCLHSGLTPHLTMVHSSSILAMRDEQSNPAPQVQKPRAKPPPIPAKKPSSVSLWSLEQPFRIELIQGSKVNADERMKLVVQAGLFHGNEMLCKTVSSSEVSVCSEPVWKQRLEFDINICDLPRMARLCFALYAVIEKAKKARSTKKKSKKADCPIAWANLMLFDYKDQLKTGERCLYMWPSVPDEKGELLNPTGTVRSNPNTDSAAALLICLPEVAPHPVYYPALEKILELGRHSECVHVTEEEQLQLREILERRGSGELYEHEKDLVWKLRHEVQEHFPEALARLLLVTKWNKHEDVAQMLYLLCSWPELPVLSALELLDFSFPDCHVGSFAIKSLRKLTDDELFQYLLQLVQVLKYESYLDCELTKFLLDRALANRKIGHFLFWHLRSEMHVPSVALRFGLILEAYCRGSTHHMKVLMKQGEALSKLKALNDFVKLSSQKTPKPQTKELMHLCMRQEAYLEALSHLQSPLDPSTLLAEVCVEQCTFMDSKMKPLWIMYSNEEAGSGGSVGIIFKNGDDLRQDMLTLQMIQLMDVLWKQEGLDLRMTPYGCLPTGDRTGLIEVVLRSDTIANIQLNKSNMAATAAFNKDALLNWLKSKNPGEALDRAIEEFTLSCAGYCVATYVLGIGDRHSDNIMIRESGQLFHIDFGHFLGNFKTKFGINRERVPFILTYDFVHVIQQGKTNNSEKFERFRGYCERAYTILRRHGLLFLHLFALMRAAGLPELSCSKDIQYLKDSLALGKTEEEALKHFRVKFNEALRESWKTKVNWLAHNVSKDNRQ
T1 sequence (P27986 whole entry partner): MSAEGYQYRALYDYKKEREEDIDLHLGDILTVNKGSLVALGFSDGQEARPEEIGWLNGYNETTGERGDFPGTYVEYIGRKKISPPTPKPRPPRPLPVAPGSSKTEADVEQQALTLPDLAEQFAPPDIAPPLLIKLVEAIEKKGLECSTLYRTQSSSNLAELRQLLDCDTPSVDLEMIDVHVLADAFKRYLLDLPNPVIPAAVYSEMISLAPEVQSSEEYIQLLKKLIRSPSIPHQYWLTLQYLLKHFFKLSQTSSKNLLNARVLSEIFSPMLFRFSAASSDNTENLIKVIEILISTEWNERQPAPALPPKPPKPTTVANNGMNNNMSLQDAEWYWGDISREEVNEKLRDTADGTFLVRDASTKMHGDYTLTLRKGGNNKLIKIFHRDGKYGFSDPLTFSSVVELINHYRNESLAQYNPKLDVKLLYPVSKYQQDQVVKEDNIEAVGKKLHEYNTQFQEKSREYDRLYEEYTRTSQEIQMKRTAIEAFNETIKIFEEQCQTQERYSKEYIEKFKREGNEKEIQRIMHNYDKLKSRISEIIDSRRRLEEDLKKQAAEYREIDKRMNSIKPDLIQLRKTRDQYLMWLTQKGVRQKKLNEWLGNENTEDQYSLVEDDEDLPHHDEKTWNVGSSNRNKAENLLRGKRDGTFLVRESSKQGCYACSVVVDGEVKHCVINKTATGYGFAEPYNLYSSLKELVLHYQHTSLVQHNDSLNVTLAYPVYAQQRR

With `C[C@H](Nc1nc(N)nc2[nH]cnc12)c1nc2ccn(C)c2cc1N1CCOCC1` [Example 27, (S)—N^6-(1-(1-Methyl-6-morpholino-1H-pyrrolo[3,2-b]pyridin-5-yl)ethyl)-9H-purine-2,6-diamine] the IC50 was 10 nM.
Molecule `C[C@@H](Nc1nc(N)nc(N)c1C#N)c1nc2ccn(C)c2cc1N1CCOCC1` [Example 48, (R)-2,4-Diamino-6-((1-(1-methyl-6-morpholino-1H-pyrrolo[3,2-b]pyridin-5-yl)ethyl)amino)pyrimidine-5-carbonitrile] has an IC50 of 79.4 nM.
`Cc1nc(N)nc(N[C@@H](C)c2nc3ccn(C)c3cc2N2CCOCC2)c1C#N` [Example 9, (S)-2-Amino-4-methyl-6-((1-(1-methyl-6-morpholino-1H-pyrrolo[3,2-b]pyridin-5-yl)ethyl)amino)pyrimidine-5-carbonitrile] was tested, and the IC50 was 0.794 nM.
In the case of `COC1CN(c2cc3c(ccn3C)nc2[C@H](C)Nc2nc(N)nc(N)c2C#N)C1` [Example 41, (S)-2,4-Diamino-6-((1-(6-(3-methoxyazetidin-1-yl)-1-methyl-1H-pyrrolo[3,2-b]pyridin-5-yl)ethyl)amino)pyrimidine-5-carbonitrile], the IC50 is reported as less than 1.58 nM.
Work on `C[C@@H](Nc1nc(N)nc(N)c1C#N)c1nc2ccn(C)c2cc1N1CC2(COC2)C1` [Example 46, (R)-2,4-Diamino-6-((1-(1-methyl-6-(2-oxa-6-azaspiro[3.3]heptan-6-yl)-1H-pyrrolo[3,2-b]pyridin-5-yl)ethyl)amino)pyrimidine-5-carbonitrile] yielded an IC50 of 200 nM.
Work on `C[C@H](Nc1nc(N)nc(N)c1C#N)c1nc2ccn(C)c2cc1-c1ccnn1C(F)F` [Example 32, (S)-2,4-Diamino-6-((1-(6-(1-(difluoromethyl)-1H-pyrazol-5-yl)-1-methyl-1H-pyrrolo[3,2-b]pyridin-5-yl)ethyl)amino)pyrimidine-5-carbonitrile] yielded an IC50 of 1.58 nM.
Molecule `C[C@H](Nc1nc(N)nc(N)c1C#N)c1nc2ccn(C)c2cc1-c1ccnn1C` [Example 2, (S)-2,4-Diamino-6-((1-(1-methyl-6-(1-methyl-1H-pyrazol-5-yl)-1H-pyrrolo[3,2-b]pyridin-5-yl)ethyl)amino)pyrimidine-5-carbonitrile] has an IC50 of 2.51 nM.
With `C[C@H](Nc1nc(N)nc(N)c1C#N)c1nc2ccn(C)c2cc1-c1ccnn1C1CC1` [Example 35, (S)-2,4-Diamino-6-((1-(6-(1-cyclopropyl-1H-pyrazol-5-yl)-1-methyl-1H-pyrrolo[3,2-b]pyridin-5-yl)ethyl)amino)pyrimidine-5-carbonitrile] the IC50 was 2.51 nM.
In the case of `C[C@H](Nc1nc(N)nc(N)c1C#N)c1nc2ccn(C)c2cc1C1CCOCC1` [Example 26, (S)-2,4-Diamino-6-((1-(1-methyl-6-(tetrahydro-2H-pyran-4-yl)-1H-pyrrolo[3,2-b]pyridin-5-yl)ethyl)amino)pyrimidine-5-carbonitrile], the IC50 is reported as less than 2 nM.
In the case of `Cc1nc(N)nc(N[C@@H](C)c2nc3ccn(C)c3cc2-c2ccnn2C)c1C#N` [Example 3, (S)-2-Amino-4-methyl-6-((1-(1-methyl-6-(1-methyl-1H-pyrazol-5-yl)-1H-pyrrolo[3,2-b]pyridin-5-yl)ethyl)amino)pyrimidine-5-carbonitrile], the IC50 is reported as 1.58 nM.
Molecule `C[C@@H](Nc1nc(N)nc(N)c1C#N)c1nc2ccn(C)c2cc1N1CC(F)(F)C1` [Example 43, (R)-2,4-Diamino-6-((1-(6-(3,3-difluoroazetidin-1-yl)-1-methyl-1H-pyrrolo[3,2-b]pyridin-5-yl)ethyl)amino)pyrimidine-5-carbonitrile] has an IC50 of 1000 nM.
`C[C@H](Nc1nc(N)ncc1C#N)c1nc2ccn(C)c2cc1-c1ccnn1C` [Example 4, (S)-2-Amino-4-((1-(1-methyl-6-(1-methyl-1H-pyrazol-5-yl)-1H-pyrrolo[3,2-b]pyridin-5-yl)ethyl)amino)pyrimidine-5-carbonitrile] was tested, and the IC50 was 63.1 nM.
Molecule `C[C@H](Nc1nc(N)ncc1F)c1nc2ccn(C)c2cc1-c1ccnn1C` [Example 7, (S)-5-Fluoro-N^4-(1-(1-methyl-6-(1-methyl-1H-pyrazol-5-yl)-1H-pyrrolo[3,2-b]pyridin-5-yl)ethyl)pyrimidine-2,4-diamine] has an IC50 of 79400 nM.
In the case of `C[C@H](Nc1nc(N)nc2[nH]cnc12)c1nc2ccn(C)c2cc1-c1ccnn1C(F)F` [Example 37, (S)-N^6-(1-(6-(1-(Difluoromethyl)-1H-pyrazol-5-yl)-1-methyl-1H-pyrrolo[3,2-b]pyridin-5-yl)ethyl)-9H-purine-2,6-diamine], the IC50 is reported as 10 nM.
In the case of `C[C@H](Nc1nc(N)nc(N)c1C#N)c1nc2ccn(C)c2cc1N1CC(F)(F)C1` [Example 44, (S)-2,4-Diamino-6-((1-(6-(3,3-difluoroazetidin-1-yl)-1-methyl-1H-pyrrolo[3,2-b]pyridin-5-yl)ethyl)amino)pyrimidine-5-carbonitrile], the IC50 is reported as 2 nM.
`C[C@H](Nc1nc(N)nc(N)c1C#N)c1nc2ccn(C)c2cc1-c1ccn[nH]1` [Example 13, (S)-2,4-Diamino-6-((1-(1-methyl-6-(1H-pyrazol-5-yl)-1H-pyrrolo[3,2-b]pyridin-5-yl)ethyl)amino)pyrimidine-5-carbonitrile] showed an IC50 of 2 nM.
In the case of `C[C@H](Nc1nc(N)nc2[nH]cnc12)c1nc2ccn(C)c2cc1-c1ccnn1C1CC1` [Example 36, (S)-N^6-(1-(6-(1-Cyclopropyl-1H-pyrazol-5-yl)-1-methyl-1H-pyrrolo[3,2-b]pyridin-5-yl)ethyl)-9H-purine-2,6-diamine], the IC50 is reported as 10 nM.
`Cc1nc(N)nc(N[C@@H](C)c2nc3ccn(C)c3cc2-c2c(C)noc2C)c1C#N` [Example 31, 2-Amino-4-(((1S)-1-(6-(3,5-dimethylisoxazol-4-yl)-1-methyl-1H-pyrrolo[3,2-b]pyridin-5-yl)ethyl)amino)-6-methylpyrimidine-5-carbonitrile] gave an IC50 of 3.98 nM.
Work on `Cc1nc(N)nc(N[C@@H](C)c2nc3ccn(C)c3cc2-c2ccnc(O)c2)c1C#N` [Example 23, (S)-2-Amino-4-((1-(6-(2-hydroxypyridin-4-yl)-1-methyl-1H-pyrrolo[3,2-b]pyridin-5-yl)ethyl)amino)-6-methylpyrimidine-5-carbonitrile] yielded an IC50 of less than 1 nM.
`C[C@H](Nc1nc(N)nc2[nH]cnc12)c1nc2ccn(C)c2cc1-c1ccccn1` [Example 34, (S)—N^6-(1-(1-Methyl-6-(pyridin-2-yl)-1H-pyrrolo[3,2-b]pyridin-5-yl)ethyl)-9H-purine-2,6-diamine] showed an IC50 of 5.01 nM.
With `C[C@H](Nc1nc(N)nc2[nH]cnc12)c1nc2ccn(C)c2cc1-c1ccnn1C` [Example 16, (S)—N^6-(1-(1-Methyl-6-(1-methyl-1H-pyrazol-5-yl)-1H-pyrrolo[3,2-b]pyridin-5-yl)ethyl)-9H-purine-2,6-diamine] the IC50 was 7.94 nM.
`C[C@H](Nc1nc(O)nc(N)c1C#N)c1nc2ccn(C)c2cc1-c1ccnn1C` [Example 11, (S)-4-Amino-2-hydroxy-6-((1-(1-methyl-6-(1-methyl-1H-pyrazol-5-yl)-1H-pyrrolo[3,2-b]pyridin-5-yl)ethyl)amino)pyrimidine-5-carbonitrile] showed an IC50 of 1260 nM.
